{
  "source": "patent US20070142321A1",
  "about": "“METHOD FOR PREVENTING GROWTH OF BACTERIA ON CONTACT LENSES WITH EYE DROPS” (priority 2005, published 2007)",
  "key": {"microbes [1]": {"system": "microbes", "experiment": "Disinfection of a contact lens removed from the eye and treated by a disinfecting/cleaning regimen", "type": "cell-based", "conditions": "Alexidine at 4.5 ppm; lens removed from the eye and treated with solution", "method": "(§1) For the purposes of this patent application a disinfecting amount is an amount of an antimicrobial agent that passes the Stand Alone Disinfecting Efficacy Test by the Food and Drug Administration (510k) of the United States of America in a minimum of three out of four test samples in a test solution that is diluted with 0.9 wt. % saline solution in a 1:1 ratio of test solution to saline solution.\n(§2) The FDA (510 (k)) Guidance Document for contact lens products defines procedures that measure the extend of viability loss of representative microorganisms at established time intervals to determine the extend of viability loss. FDA (510 (k)) Guidance Documents recommended test organisms for both disinfecting stand-alone and preservative efficacy testing are composed of three bacteria (Pseudomonas aeruginosa ATCC 9027, Stapylococcus aureus ATCC 6538, and Serratia marcescens ATCC 13880) and two fungi (Candida albicans ATCC 10231, and Fusarium solani ATCC 36031). The performance requirement biocidal stand alone testing calls for 3 log reduction for bacterial cells and 1 log reduction for each fungi. At day 28, after the rechallenge on day 14, the performance requirement for preservative efficacy testing calls for reduction of 3.0 logs per bacteria and ±0.5 for fungi.\n(§3) With Alexidine, it has been discovered that approximately 1 ppm is required to disinfect each of the solutions above. […]"}, "microbes [2]": {"system": "microbes", "experiment": "Amount of Alexidine required to disinfect the solutions", "type": "cell-based", "conditions": "in Formulae 1-4", "method": "as §1, §2, §3"}},
  "data": [
    {"smiles": "CCCCC(CC)CNC(=N)NC(=N)NCCCCCCNC(=N)NC(=N)NCC(CC)CCCC", "note": "(centres unmarked) [Alexidine, 1,1′-hexamethylenebis[5-(2-ethylhexyl)biguanide]]", "values": [
      {"measurement": "antimicrobial activity to disinfect a contact lens", "setting": "microbes [1]", "value": "sufficient antimicrobial activity to disinfect a contact lens"},
      {"measurement": "amount of Alexidine required to disinfect each of the solutions", "setting": "microbes [2]", "value": "approximately 1 ppm"}
    ]}
  ]
}
